The results in this text go back to patent US6596687B1, “Cell adhesion inhibitors” (Biogen, Inc., priority 1995, dated 2003).

Numbered stars: 1 amine (or outer) side, 2 acyl side, 3 side chain; on linkers, the order of the positions; unused ones are H or OH. Square brackets hold non-standard residues; d marks the D form. Peptide text beside a SMILES is read from it. * marks the point of attachment. X2 = O=C(Cc1ccc(N[*:1])cc1)[*:2]; NH(2-Me-phenyl) = Cc1ccccc1N*; Piperidide = C1CCN(*)CC1; PhAc = O=C(Cc1ccccc1)*; Boc = CC(C)(C)OC(=O)*; CO = O=C([*:1])[*:2]; NHBn = c1ccc(CN*)cc1; NHPh = c1ccc(N*)cc1; Bn = c1ccc(C*)cc1; NHiBu = CC(C)CN*

T1 sequence (P13612 34-1032): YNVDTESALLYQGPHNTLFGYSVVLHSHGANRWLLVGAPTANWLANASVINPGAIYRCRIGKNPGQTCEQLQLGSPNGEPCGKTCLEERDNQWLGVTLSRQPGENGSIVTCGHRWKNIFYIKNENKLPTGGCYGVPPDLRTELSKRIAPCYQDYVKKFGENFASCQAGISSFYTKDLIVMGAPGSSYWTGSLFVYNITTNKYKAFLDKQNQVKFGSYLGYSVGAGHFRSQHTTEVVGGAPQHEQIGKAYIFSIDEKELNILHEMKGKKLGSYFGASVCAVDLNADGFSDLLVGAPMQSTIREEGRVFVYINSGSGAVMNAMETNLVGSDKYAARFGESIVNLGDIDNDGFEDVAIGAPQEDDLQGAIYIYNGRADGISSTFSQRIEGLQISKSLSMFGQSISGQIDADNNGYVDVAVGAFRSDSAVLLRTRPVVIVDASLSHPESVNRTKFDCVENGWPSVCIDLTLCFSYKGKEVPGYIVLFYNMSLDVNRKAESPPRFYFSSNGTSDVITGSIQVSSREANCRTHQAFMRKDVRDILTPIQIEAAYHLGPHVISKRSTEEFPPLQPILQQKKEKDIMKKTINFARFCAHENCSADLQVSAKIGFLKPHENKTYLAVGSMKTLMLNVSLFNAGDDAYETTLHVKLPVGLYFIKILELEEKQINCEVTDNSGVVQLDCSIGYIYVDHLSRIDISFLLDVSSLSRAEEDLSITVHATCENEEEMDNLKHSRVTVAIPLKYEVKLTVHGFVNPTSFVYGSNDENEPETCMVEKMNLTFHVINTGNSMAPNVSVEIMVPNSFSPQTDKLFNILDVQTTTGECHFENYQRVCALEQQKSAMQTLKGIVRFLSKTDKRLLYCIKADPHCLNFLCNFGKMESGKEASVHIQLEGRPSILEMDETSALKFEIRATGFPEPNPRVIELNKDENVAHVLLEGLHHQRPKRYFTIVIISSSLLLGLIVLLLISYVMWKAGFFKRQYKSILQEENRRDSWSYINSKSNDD
T1 sequence (P05556 21-798): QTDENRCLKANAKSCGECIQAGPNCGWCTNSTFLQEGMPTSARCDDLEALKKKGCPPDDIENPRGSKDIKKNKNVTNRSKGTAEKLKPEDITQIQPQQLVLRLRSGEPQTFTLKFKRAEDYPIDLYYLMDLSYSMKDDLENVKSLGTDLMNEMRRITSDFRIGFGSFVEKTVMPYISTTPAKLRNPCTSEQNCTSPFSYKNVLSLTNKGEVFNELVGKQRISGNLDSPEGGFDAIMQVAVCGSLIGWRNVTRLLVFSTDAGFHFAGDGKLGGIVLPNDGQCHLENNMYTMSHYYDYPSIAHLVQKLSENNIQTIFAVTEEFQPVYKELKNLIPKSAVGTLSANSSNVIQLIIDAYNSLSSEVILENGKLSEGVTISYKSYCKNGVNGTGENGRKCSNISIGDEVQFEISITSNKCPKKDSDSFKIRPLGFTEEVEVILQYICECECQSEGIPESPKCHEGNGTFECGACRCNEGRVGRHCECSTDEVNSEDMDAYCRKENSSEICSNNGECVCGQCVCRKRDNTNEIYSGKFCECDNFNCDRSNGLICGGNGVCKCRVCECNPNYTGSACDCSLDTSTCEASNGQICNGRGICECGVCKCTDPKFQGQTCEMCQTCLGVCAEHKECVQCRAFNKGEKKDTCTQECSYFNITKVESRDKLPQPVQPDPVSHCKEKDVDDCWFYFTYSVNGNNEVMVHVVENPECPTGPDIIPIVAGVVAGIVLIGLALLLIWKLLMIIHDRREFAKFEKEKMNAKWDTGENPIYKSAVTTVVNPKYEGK

One test concerns the target T1, VLA4 (Homo sapiens, UniProt P05556+P13612).
T1 construct: endogenous in cells; host or cells: Ramos cells
The test can be described thus: Inhibition of VLA4-dependent adhesion of Ramos cells to BSA-CS1.
Conditions: not given
It is filed as cell-based. The source says:
For example, the cell adhesion inhibitory activity of these compounds may be measured by determining the concentration of inhibitor required to block the binding of VLA-4-expressing cells to fibronectin- or CS1-coated plates. In this assay microtiter wells are coated with either fibronectin (containing the CS1-sequence) or CS-1. If CS-1 is used, it must be conjugated to a carrier protein, such as bovine serum albumin, in order to bind to the wells. Once the wells are coated, varying concentrations of the test compound are then added together with appropriately labelled, VLA-4-expressing cells. Alternatively, the test compound may be added first and allowed to incubate with the coated wells prior to the addition of the cells. The cells are allowed to incubate in the wells for at least 30 minutes. Following incubation, the wells are emptied and washed. Inhibition of binding is measured by quantitating the fluorescence or radioactivity bound to the plate for each of the various concentrations of test compound, as well as for controls containing no test compound.
VLA-4-expressing cells that may be utilized in this assay include Ramos cells, Jurkat cells, A375 melanoma cells, as well as human peripheral blood lymophocytes (PBLs). The cells used in this assay may be fluorescently or radioactively labelled.
This assay was used to assess the potency of VLA4-directed inhibitory compounds of this invention. 1.
We dissolved BSA-SMCC (Pierce Chemical, Rockford, Ill.; Catalog #77115) in H2O at a concentration of 10 mg/mL. [SEQ ID NO:4]: […](“Cys-Tyr-CS1 peptide”), which we synthesized by conventional solid phase chemistry and purified by HPLC, was dissolved in 10 mM HEPES pH 5, 50 mM NaCl and 0.1 mM EDTA also at a concentration of 10 mg/mL. We then mixed 500 μL of BSA-SMCC, 250 μL of Cys-Tyr-CS1 peptide and 75 μL of 1 mM HEPES pH 7.5 and allowed the conjugation reaction to proceed for 30 minutes. We stopped the reaction by adding 1 μL of beta-mercaptoethanol. Samples were analyzed for cross-linking by SDS-PAGE.
We coated the wells of a Linbro titertek polystyrene 96-well flat bottom plate (Flow Laboratories, Maclean, Va.; catalog #76-231-05) with 100 μL of the above-described BSA-CS1 solution diluted to 1 μg/mL in 0.05 M NaHCO3 (15 mM NaHCO3, 35 mM Na2CO3) pH 9.2. Some wells were not coated with CS1 in order to assess non-specific cell binding (NSB). The plate was then incubated overnight at 4° C.
Following this incubation, the contents of the wells were removed by inverting and blotting the plate. All of the wells were then blocked with 100 μL of 1% BSA in PBS, 0.02% NaN3, for a minimum of one hour at room temperature.
Ramos cells are grown, maintained and labelled in RPMI 1640 culture medium containing 1% BSA. Just prior to running the assay, we added 2′, 7′-bis-(2-carboxyethyl)-5(and -6)carboxyfluorescein acetoxymethyl ester (“BCECF-AM”; Molecular Probes Inc., Eugene, Oregon; catalog #B-1150) to a final concentration of 2 μM to a culture of Ramos cells (4×10^6 cells/mL). We incubated the cells for 20 minutes at 37° C.
Following labelling, the cells were washed twice in assay buffer (24 mM TRIS, 137 mM NaCl, 2.7 mM KCl, pH 7.4, containing 0.1 BSA and 2mM glucose) to remove any cations originating from the culture medium. The cells were then resuspended in assay buffer to 4×10^6 cells/mL and 2 mM MnCl2 was added to upregulate VLA4 on the surface of the cells.
Immediately prior to running the assay, we removed the BSA blocking solution from the 96-well plates and washed the wells with 100 μL of assay buffer. We then added to each well 25 μL of test cell adhesion inhibitory compound at 2×the final concentration and 25 μL of the labelled Ramos cells. […] Each concentration of compound was tested in triplicate. The compound and cells are allowed to incubate for 30 minutes at room temperature.
On to `CC(C)C[C@H](NC(=O)C1CCc2ccccc2N1)C(=O)N[C@@H](CC(=O)O)C(=O)N[C@H](C(=O)N1CCC(c2ccccc2)CC1)C(C)C` (stereo partly shown) [Compound 115], for which the IC50 (in general, the concentration that inhibits the measured activity by half) is > 10 µM.

Staying with this test, now noted: Ramos cells, BSA-CS1 coated wells, 2 mM MnCl2, 30 minutes at room temperature; read-out: IC50.
For `COC(=O)[C@H](CCSC)NC(=O)[C@@H](NC(=O)[C@H](CC(=O)O)NC(=O)[C@H](CC(C)C)NC(=O)c1ccc2ccccc2n1)C(C)C` [Compound 168] (HELM PEPTIDE1{[O=C(c1ccc2ccccc2n1)[*:2]].L.D.V.M.[CO[*:1]]}$$$$V2.0), the IC50 lay in the range of 0.05 to 10 µM.
On the same count and under the same terms, the result for `CNC(=O)[C@@H](NC(=O)[C@H](CC(=O)O)NC(=O)[C@H](CC(C)C)NS(=O)(=O)c1ccccc1)C(C)C` [Compound 189] reads > 10 µM.
Still for that read-out and setting: the result for `CC(C)C[C@H](NC(=O)Cc1ccc(NC(=O)Nc2ccccc2)cc1)C(=O)N[C@@H](CC(=O)O)C(=O)N[C@H](C(=O)N1CCC[C@H]1C(=O)N1CCCCC1)C(C)C` [Compound 325] ({NHPh-CO}-[X2]LDVP-Piperidide) reads 0.05 to 10 µM; that for `CNC(=O)[C@H](COCc1ccccc1)NC(=O)[C@H](CC(=O)O)NC(=O)[C@H](CC(C)C)NC(=O)Cc1ccccc1` [Compound 352] (PhAc-Leu-Asp-Ser(Bn)-NHMe), > 10 µM.
The same measure, in the same setting: in the case of `CC(C)[C@H](NC(=O)[C@H](CC(=O)O)NC(=O)[C@H](Cc1ccccc1)NC(=O)c1cc2ccccc2cn1)C(=O)O` [Compound 81] it was > 10 µM.
As for `CC(C)C[C@H](NC(=O)[C@H](CC(=O)O)NC(=O)C1Cc2ccccc2CN1)C(=O)O` (stereo partly shown) [Compound 88] (HELM PEPTIDE1{[O=C(C1Cc2ccccc2CN1)[*:2]].D.L}$$$$V2.0), the IC50 was > 10 µM.
Still for that read-out and setting: in the case of `CC(C)[C@H](NC(=O)[C@H](CC(=O)O)NC(=O)C1CCc2ccccc2C1)C(=O)O` (stereo partly shown) [Compound 75] it was > 10 µM; in that of `CNC(=O)[C@@H](NC(=O)[C@H](CC(=O)O)NC(=O)[C@H](CC(C)C)NC(=O)Nc1ccccc1)C(C)C` [Compound 187] ({NHPh-CO}-Leu-Asp-Val-NHMe), > 10 µM.
Same read-out and setting: the result for `CNC(=O)[C@@H](NC(=O)[C@H](CC(=O)O)NC(=O)[C@@H]1CCCN1C(=O)Cc1ccccc1)C(C)C` [Compound 130] (HELM PEPTIDE1{[O=C(Cc1ccccc1)[*:2]].P.D.V.[CN[*:1]]}$$$$V2.0) reads > 10 µM; that for `CC(C)C[C@H](NC(=O)C1CCc2ccccc2N1)C(=O)N[C@@H](CC(=O)O)C(=O)N[C@H](C(=O)Nc1ccccc1)C(C)C` (stereo partly shown) [Compound 124], > 10 µM; that for `CC(C)C[C@H](NC(=O)C1Cc2ccccc2CN1)C(=O)N[C@@H](CCC(=O)O)C(=O)N[C@H](C(=O)O)C(C)C` (stereo partly shown) [Compound 31] (HELM PEPTIDE1{[O=C(C1Cc2ccccc2CN1)[*:2]].L.E.V}$$$$V2.0), > 10 µM.
On the same count and under the same terms, the result for `CC[C@H](C)[C@H](NC(=O)Cc1ccc(NC(=O)Nc2ccccc2)cc1)C(=O)N[C@@H](CC(=O)O)C(=O)N[C@H](C(=O)N1CCC[C@H]1C(N)=O)C(C)C` [Compound 209] ({NHPh-CO}-[X2]IDVP-NH2) reads 0.05 to 10 µM; that for `CC(C)C[C@H](NC(=O)OC(C)(C)C)C(=O)N[C@@H](CC(=O)O)C(=O)N[C@H](C(=O)NC(C)(C)C)[C@@H](C)O` [Compound 62] (HELM PEPTIDE1{[CC(C)(C)OC(=O)[*:2]].L.D.T.[CC(C)(C)N[*:1]]}$$$$V2.0), > 10 µM; that for `COC(=O)[C@@H](NC(=O)[C@H](CC(=O)O)NC(=O)[C@H](CC(C)C)N(C)C(=O)CCc1ccc(O)cc1)C(C)C` [Compound 18], 0.05 to 10 µM.
For the molecule `CNC(=O)[C@@H](NC(=O)[C@H](CC(=O)O)NC(=O)[C@H](CCCNC(=N)N)NC(=O)Cc1ccccc1)C(C)C` [Compound 131] (HELM PEPTIDE1{[O=C(Cc1ccccc1)[*:2]].R.D.V.[CN[*:1]]}$$$$V2.0), the IC50 was > 10 µM.
As to `COC(=O)[C@@H](NC(=O)[C@H](CC(=O)O)NC(=O)[C@H](CC(C)C)NC(=O)Cc1ccc(OC)cc1)[C@@H](C)O` [Compound 176], the IC50 was > 10 µM.
In the case of `CC(C)C[C@H](NC(=O)Cc1ccc(NC(=O)Nc2ccccc2)cc1)C(=O)N[C@@H](CC(=O)O)C(=O)N[C@H](C(=O)N1CCCCC1)C(C)C` [Compound 322], the IC50 is < 0.05 µM.
On the same count and under the same terms, in the case of `CC(C)C[C@H](NC(=O)C1(N)CCc2ccccc2C1)C(=O)N[C@@H](CC(=O)O)C(=O)N[C@H](C(=O)O)C(C)C` (stereo partly shown) [Compound 67] (HELM PEPTIDE1{[NC1(C(=O)[*:2])CCc2ccccc2C1].L.D.V}$$$$V2.0) it was > 10 µM; in that of `CNC(=O)[C@@H](NC(=O)[C@H](CC(=O)O)NC(=O)[C@H](CC(C)C)N(C)C(=O)Cc1ccccc1)C(C)C` [Compound 180] (HELM PEPTIDE1{[O=C(Cc1ccccc1)[*:2]].[meL].D.V.[CN[*:1]]}$$$$V2.0), 0.05 to 10 µM.
Still for that read-out and setting: the result for `CC(C)CNC(=O)[C@H](CC(=O)O)NC(=O)[C@H](CC(C)C)NC(=O)CCCCc1ccccc1` [Compound 106] reads > 10 µM; that for `CC(C)CCNC(=O)[C@H](CC(=O)O)NC(=O)[C@H](CC(C)C)NC(=O)CCCCc1ccccc1` [Compound 102], > 10 µM; that for `CC(C)CNC(=O)[C@@H]1CCCN1C(=O)[C@@H](NC(=O)[C@H](CC(=O)O)NC(=O)[C@H](CC(C)C)NC(=O)Cc1ccc(NC(=O)Nc2ccccc2)cc1)C(C)C` [Compound 328] ({NHPh-CO}-[X2]LDVP-NHiBu), < 0.05 µM.
On the same count and under the same terms, in the case of `CC(C)C[C@H](NC(=O)CCc1ccc(O)cc1)C(=O)N[C@@H](CC(=O)O)C(=O)N(CC(C)C)CC(C)C` [Compound 117] it was > 10 µM; in that of `CNC(=O)[C@@H](NC(=O)[C@H](CC(=O)O)NC(=O)[C@H](CC(C)C)NC(=O)Nc1ccc(C)cc1)C(C)C` [Compound 48], > 10 µM.
`Cc1ccccc1NC(=O)Nc1ccc(CC(=O)N[C@@H](CC(C)C)C(=O)N[C@@H](CC(=O)O)C(=O)N[C@H](C(=O)N2CCC[C@H]2C(N)=O)C(C)C)cc1` [Compound 148] ({NH(2-Me-phenyl)-CO}-[X2]LDVP-NH2): the IC50 was < 0.05 µM.
Still for that read-out and setting: the result for `CC[C@H](C)[C@H](NC(=O)[C@H](CC(=O)O)NC(=O)[C@H](CCC(N)=O)NC(=O)Cc1ccc(NC(=O)Nc2ccccc2C)cc1)C(N)=O` [Compound 300] reads < 0.05 µM.
Same read-out and setting: in the case of `CC(C)CC(NC(=O)C(Cc1ccc(O)cc1)NC(=O)OC(C)(C)C)C(=O)NC(CC(=O)O)C(=O)NC(C(=O)O)C(C)C` (stereo not shown) [Compound 66] (Boc-YLDV-OH; configuration not given here) it was > 10 µM; in that of `CC(C)C[C@H](NC(=O)c1cc2ccccc2cn1)C(=O)N[C@@H](CCC(=O)O)C(=O)N[C@H](C(=O)O)C(C)C` [Compound 5], > 10 µM; in that of `CC(C)C[C@H](NC(=O)Cc1ccc(NC(=O)Nc2ccccc2)cc1)C(=O)N[C@@H](CC(=O)O)C(=O)N[C@H](C(=O)N1CCC[C@H]1C(N)=O)C(C)C` [Compound 201] ({NHPh-CO}-[X2]LDVP-NH2), 0.05 to 10 µM.
Still for that read-out and setting: in the case of `CC(C)C[C@H](NC(=O)c1cc2ccccc2cn1)C(=O)N[C@@H](CC(=O)O)C(=O)O` [Compound 12] it was > 10 µM; in that of `CNC(=O)[C@@H](NC(=O)[C@H](CC(=O)O)NC(=O)[C@H](CC(C)C)NC(=O)NCc1ccccc1)C(C)C` [Compound 47] ({NHBn-CO}-Leu-Asp-Val-NHMe), > 10 µM.
`CC(C)C[C@H](NC(=O)C1CCOC1)C(=O)N[C@@H](CC(=O)O)C(=O)N[C@H](C(=O)O)C(C)C` (stereo partly shown) [Compound 79]: the IC50 was > 10 µM.
The same measure, in the same setting: in the case of `CC(C)C[C@H](NC(=O)C1CCc2ccccc2N1)C(=O)N[C@@H](CC(=O)O)C(=O)N[C@H](C(=O)Nc1ccc(F)cc1)C(C)C` (stereo partly shown) [Compound 122] it was > 10 µM.
